Assay results from ChEMBL document CHEMBL3351827, “Design, synthesis and evaluation of novel 5-phenylpyridin-2(1H)-one derivatives as potent reversible Bruton's tyrosine kinase inhibitors” (Bioorg Med Chem, 2015).
pIC50: −log10 of the molar value. Calls of active or inactive are those of the source. The calls are words filed in the database; no cut-off is given here.

Legend:
[1] = target: T1, Tyrosine-protein kinase BTK (Homo sapiens, UniProt Q06187); test: Inhibition of BTK in human Ramos cells assessed as reduction in IgM-induced calcium influx incubated for 20 mins by Fluo-4 dye based fluorescence assay; format: cell-based
T1 sequence (Q06187 whole entry): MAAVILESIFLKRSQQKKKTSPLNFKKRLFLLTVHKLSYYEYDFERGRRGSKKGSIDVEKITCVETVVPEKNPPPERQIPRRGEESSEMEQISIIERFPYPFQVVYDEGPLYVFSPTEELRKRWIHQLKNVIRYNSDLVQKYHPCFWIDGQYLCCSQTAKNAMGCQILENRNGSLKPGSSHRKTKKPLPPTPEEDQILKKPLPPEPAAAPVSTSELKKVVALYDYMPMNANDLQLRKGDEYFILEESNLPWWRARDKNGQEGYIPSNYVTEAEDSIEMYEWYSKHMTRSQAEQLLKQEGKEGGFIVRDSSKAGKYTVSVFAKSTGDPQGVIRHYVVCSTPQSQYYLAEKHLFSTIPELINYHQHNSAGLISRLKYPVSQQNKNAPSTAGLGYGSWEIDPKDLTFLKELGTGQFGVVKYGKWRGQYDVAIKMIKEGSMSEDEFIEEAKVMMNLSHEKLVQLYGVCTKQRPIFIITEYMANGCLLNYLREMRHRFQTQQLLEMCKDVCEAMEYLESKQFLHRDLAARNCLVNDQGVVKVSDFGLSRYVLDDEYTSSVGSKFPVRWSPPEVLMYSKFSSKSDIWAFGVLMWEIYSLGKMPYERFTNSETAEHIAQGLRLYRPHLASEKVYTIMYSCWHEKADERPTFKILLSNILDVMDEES

[2] = target: T1, Tyrosine-protein kinase BTK; test: Inhibition of BTK (unknown origin) using biotin-labeled peptide substrate incubated for 1 hr by TR-FRET based HTRF kinase assay
[3] = AUC in Sprague-Dawley rat at 2 mg/kg, po measured during 2 mins to 24 hrs period post dose by LC/MS/MS method; format: ADME, organism-based; set-up: time upper 24 hr, time lower 0.033 hr, dose 2 mg/kg, route oral; conditions: plasma
[4] = Clearance in Sprague-Dawley rat at 2 mg/kg, po measured during 2 mins to 24 hrs period post dose by LC/MS/MS method; format: ADME, organism-based; set-up: dose 2 mg/kg, route oral; conditions: in vivo
[5] = Clearance in Sprague-Dawley rat at 1 mg/kg, iv measured during 2 mins to 24 hrs period post dose by LC/MS/MS method; format: ADME, organism-based; set-up: dose 1 mg/kg, route intravenous; conditions: in vivo
[6] = Half life in Sprague-Dawley rat at 2 mg/kg, po measured during 2 mins to 24 hrs period post dose by LC/MS/MS method; format: ADME, organism-based; set-up: dose 2 mg/kg, route oral; conditions: in vivo
Rattus norvegicus [7] = test: Inhibition of collagen-induced arthritis in Wistar rat assessed as reduction in disease progression at 20 mg/kg, po dosed for 13 days starting from day 14 post collagen challenge; format: functional, organism-based; set-up: dose 20 mg/kg
[8] = Mean residence time (0 to t) in Sprague-Dawley rat at 2 mg/kg, po measured during 2 mins to 24 hrs period post dose by LC/MS/MS method; format: ADME, organism-based; set-up: dose 2 mg/kg, route oral; conditions: in vivo
[9] = Cmax in Sprague-Dawley rat at 2 mg/kg, po measured during 2 mins to 24 hrs period post dose by LC/MS/MS method; format: ADME, organism-based; set-up: dose 2 mg/kg, route oral; conditions: in vivo
[10] = Mean residence time (0 to t) in Sprague-Dawley rat at 1 mg/kg, iv measured during 2 mins to 24 hrs period post dose by LC/MS/MS method; format: ADME, organism-based; set-up: dose 1 mg/kg, route intravenous; conditions: in vivo
[11] = Cmax in Sprague-Dawley rat at 1 mg/kg, iv measured during 2 mins to 24 hrs period post dose by LC/MS/MS method; format: ADME, organism-based; set-up: dose 1 mg/kg, route intravenous; conditions: in vivo
[12] = Apparent volume of distribution in Sprague-Dawley rat at 1 mg/kg, iv measured during 2 mins to 24 hrs period post dose by LC/MS/MS method; format: ADME, organism-based; set-up: dose 1 mg/kg, route intravenous; conditions: in vivo, read-out: Vz
[13] = Oral bioavailability in Sprague-Dawley rat at 2 mg/kg measured during 2 mins to 24 hrs period post dose by LC/MS/MS method; format: ADME, organism-based; conditions: in vivo
[14] = Half life in Sprague-Dawley rat at 1 mg/kg, iv measured during 2 mins to 24 hrs period post dose by LC/MS/MS method; format: ADME, organism-based; set-up: dose 1 mg/kg, route intravenous; conditions: in vivo
[15] = AUC in Sprague-Dawley rat at 1 mg/kg, iv measured during 2 mins to 24 hrs period post dose by LC/MS/MS method; format: ADME, organism-based; set-up: time 0.033-24 hr, dose 1 mg/kg, route intravenous; conditions: plasma
Rattus norvegicus [16] = test: Apparent volume of distribution in Sprague-Dawley rat at 2 mg/kg, po measured during 2 mins to 24 hrs period post dose by LC/MS/MS method; format: ADME, organism-based; set-up: dose 2 mg/kg, route oral; conditions: in vivo
Rattus norvegicus [17] = test: Toxicity in Wistar rat model of collagen-induced arthritis assessed reduction in body weight at 6 and 20 mg/kg, po dosed for 13 days starting from day 14 post collagen challenge; format: organism-based; set-up: dose 20 mg/kg, route oral; conditions: in vivo, 312 h
Rattus norvegicus [18] = organism: Rattus norvegicus; conditions: Wistar, 6 mg/kg
Description: Inhibition of collagen-induced arthritis in Wistar rat assessed as reduction in disease progression at 6 mg/kg, po dosed for 13 days starting from day 14 post collagen challenge

Question: With Cc1c(-c2cc(Nc3ccc(N4CCN(C)CC4)cn3)c(=O)n(C)c2)cccc1-n1ccc2cc(C3CC3)cc(F)c2c1=O as the compound, how does the pIC50 [1] read?
Answer: 6.60

Question: And the pIC50 [2]?
Answer: 6.44

Question: With CN1CCN(c2ccc(Nc3cc(-c4cccc(-n5ccc6cc(N(C)C)ncc6c5=O)c4CO)cn(C)c3=O)nc2)CC1 as the compound, how does the pIC50 [1] read?
Answer: 5.99

Question: What about the pIC50 [2] of the same compound?
Answer: 6.37

Question: With Cc1c(-c2cc(Nc3ccc(N4CCN(C)CC4)cn3)c(=O)n(C)c2)cccc1-c1nc2cc(C(C)(C)C)ccc2[nH]1 as the compound, how does the pIC50 [2] read?
Answer: < 5.30

Question: What does the source list for Cc1c(NC(=O)c2ccc(C(C)(C)C)cc2)cccc1-c1cc(Nc2ccc(N3CCN(C)CC3)cn2)c(=O)n(C)c1?
Answer: pIC50 [1]: < 5.30; pIC50 [2]: 6.06

Question: With CN1CC(N2CCN(c3ccc(Nc4cc(-c5cccc(-n6ccc7cc(C8CC8)cc(F)c7c6=O)c5CO)cn(C)c4=O)nc3)CC2)C1 as the compound, how does the pIC50 [1] read?
Answer: 7.48

Question: What about the pIC50 [2] of the same compound?
Answer: 8.05

Question: With Cn1cc(-c2cccc(-n3ccc4cc(C5CC5)cc(F)c4c3=O)c2CO)cc(Nc2ccc(C3CCN(C4COC4)CC3)cn2)c1=O as the compound, how does the pIC50 [1] read?
Answer: 7.68

Question: And the pIC50 [2]?
Answer: 7.70

Question: With Cn1cc(-c2cccc(-n3ccc4cc(C5CC5)cc(F)c4c3=O)c2CO)cc(Nc2ccc(N3CCN(C(=O)C4CC4)CC3)cn2)c1=O as the compound, how does the pIC50 [1] read?
Answer: 5.36

Question: And the pIC50 [2]?
Answer: 7.55

Question: With Cc1c(Nc2ncnc3ccccc23)cccc1-c1c[nH]c(=O)c(Nc2ccc(N3CCN(C)CC3)cn2)c1C as the compound, how does the pIC50 [2] read?
Answer: < 5.30

Question: With CN1CCN(c2ccc(Nc3cc(-c4cccc(-n5ccc6cc(C7CC7)ncc6c5=O)c4CO)cn(C)c3=O)nc2)CC1 as the compound, how does the pIC50 [1] read?
Answer: 6.91

Question: What about the pIC50 [2] of the same compound?
Answer: 6.59

Question: With CN1CCN(c2ccc(CNc3cc(-c4cccc(-n5ccc6cc(C7CC7)cc(F)c6c5=O)c4CO)cn(C)c3=O)cc2)CC1 as the compound, how does the pIC50 [2] read?
Answer: < 5.30

Question: With CN1CCN(c2ccc(Nc3cc(-c4cccc(-n5ccc6cc(C7CC7)cc(F)c6c5=O)c4)cn(C)c3=O)nc2)CC1 as the compound, how does the pIC50 [1] read?
Answer: 6.33

Question: And the pIC50 [2]?
Answer: 6.30

Question: For CN1CCN(c2ccc(Nc3cc(-c4cccc(-n5ccc6cc(C7CC7)cc(F)c6c5=O)c4CO)cn(C)c3=O)nc2)CC1, which AUC [3] is on record?
Answer: 403 ng·h/mL

Question: And the CL/F [4]?
Answer: 84.5 mL/min/kg

Question: And the clearance [5]?
Answer: 41.2 mL/min/kg

Question: What about the half-life [6] of the same compound?
Answer: 11.5 h

Question: And the inhibition (Rattus norvegicus [7])?
Answer: Active

Question: And the MRT last [8]?
Answer: 9.31 h

Question: And the Cmax [9]?
Answer: 34.8 ng/mL

Question: And the MRT last [10]?
Answer: 6.56 h

Question: What about the Cmax [11] of the same compound?
Answer: 220 ng/mL

Question: And the Vd [12]?
Answer: 50.5 L/kg

Question: What about the bioavailability [13] of the same compound?
Answer: 49.9%

Question: And the half-life [14]?
Answer: 14.1 h

Question: And the AUC [15]?
Answer: 404 ng·h/mL

Question: And the Vz (Rattus norvegicus [16])?
Answer: 86.69 L/kg

Question: With Cc1c(-c2cc(Nc3ccc(N4CCN(C)CC4)cn3)c(=O)n(C)c2)cccc1N1C(=O)c2ccc(C(C)(C)C)cc2C1=O as the compound, how does the pIC50 [2] read?
Answer: < 5.30

Question: With CN1CCN(c2ccc(Nc3cc(-c4cccc(-n5ccc6cc(C7CC7)ccc6c5=O)c4CO)cn(C)c3=O)nc2)CC1 as the compound, how does the pIC50 [1] read?
Answer: 6.94

Question: And the pIC50 [2]?
Answer: 7.43

Question: With CN1CCN(c2ccc(Nc3cc(-c4cccc(-n5ccc6ccccc6c5=O)c4CO)cn(C)c3=O)nc2)CC1 as the compound, how does the pIC50 [2] read?
Answer: 5.99

Question: For Cn1cc(-c2cccc(-n3ccc4cc(C5CC5)cc(F)c4c3=O)c2CO)cc(Nc2ccc(N3CCN(C4COC4)CC3)cn2)c1=O, which AUC [3] is on record?
Answer: 1950 ng·h/mL

Question: And the pIC50 [1]?
Answer: 8.10

Question: What about the CL/F [4] of the same compound?
Answer: 13.5 mL/min/kg

Question: And the clearance [5]?
Answer: 7.83 mL/min/kg

Question: And the half-life [6]?
Answer: 11.5 h

Question: What about the Activity (Rattus norvegicus [17]) of the same compound?
Answer: Non-toxic

Question: What about the inhibition (Rattus norvegicus [7]) of the same compound?
Answer: Active

Question: And the MRT last [8]?
Answer: 8.78 h

Question: What about the Cmax [9] of the same compound?
Answer: 170 ng/mL

Question: And the MRT last [10]?
Answer: 6.48 h

Question: What about the Cmax [11] of the same compound?
Answer: 1090 ng/mL

Question: What about the Vd [12] of the same compound?
Answer: 9.28 L/kg

Question: And the pIC50 [2]?
Answer: 7.80

Question: What about the bioavailability [13] of the same compound?
Answer: 58.4%

Question: And the half-life [14]?
Answer: 13.6 h

Question: And the AUC [15]?
Answer: 1670 ng·h/mL

Question: And the inhibition (Rattus norvegicus [18])?
Answer: Active

Question: What about the Vz (Rattus norvegicus [16]) of the same compound?
Answer: 13.4 L/kg

Question: With CN1CCN(c2ccc(C(=O)Nc3cc(-c4cccc(-n5ccc6cc(C7CC7)cc(F)c6c5=O)c4CO)cn(C)c3=O)cc2)CC1 as the compound, how does the pIC50 [1] read?
Answer: < 5.30

Question: And the pIC50 [2]?
Answer: 6.09

Question: With Cc1c(-c2cc(Nc3ccc(N4CCN(C5COC5)CC4)cn3)c(=O)n(C)c2)cccc1-n1ccc2cc(C3CC3)cc(F)c2c1=O as the compound, how does the pIC50 [1] read?
Answer: 6.77

Question: What about the pIC50 [2] of the same compound?
Answer: 6.69

Question: Which results are given for CN1CCN(c2ccc(Nc3cc(-c4cccc(-n5ccc6nc(C7CC7)ccc6c5=O)c4CO)cn(C)c3=O)nc2)CC1?
Answer: pIC50 [1]: 5.49; pIC50 [2]: 6.25
